Experiments:
[1] = tested on: acid-sensing ion channels (ASICs); assay: Pharmacological blockade of the ChR2 bystander current by the ASIC inhibitor amiloride; assay type: cell-based, mice
Experimental: Whole cell patch clamp recordings on cortical and hippocampus neurons were performed on an upright Leica DM-LFSA microscope. Slices were continually perfused in warmed (33° C.) ACSF at a rate of 7 ml min^−1 Patching was performed in the presence of synaptic transmission blockers 6-cyano-7-nitroquinoxaline-2,3-dione (CNQX, 50 μM) and D(−)-2-amino-5-phosphonovaleric acid (APV, 25 μM) and gabazine (25 μM) (Tocris Bioscience) except for during testing of electrically-evoked synaptic responses. For amiloride experiments, amiloride was added to the ACSF at a concentration of 500 μM (Tocris). Borosilicate glass (Sutter Instruments) pipette resistances were pulled to 3-6 MΩ and filled with potassium gluconate intracellular solution (130 mM K Gluconate, 10 mM KCl, 10 mM HEPES, 10 mM EGTA, 2 mM MgCl2, pH adjusted with KOH to 7.3). Voltage and current clamp electrophysiological recordings and manipulations were performed using pClamp (Axon Instruments). Cells were held at −70 mV for all experiments. Cells with leak current greater than −300 pA or pipette resistance greater than 30 MΩ were excluded. […]

[2] = tested on: cultured hippocampal neurons; assay: Whole cell patch clamp of cultured hippocampal neurons expressing eArch3.0-ASIC2a (Champ) constructs; assay type: cell-based, rat
Description: Construct design for hippocampal neurons: The protein sequence of rat ASIC2a (Genbank accession number NM_001034014.1) was human codon optimized and synthesized by Genscript. eArch3.0 and ASIC-YFP fusions were cloned into an AAV2 backbone either under a CaMKIIα or human synapsin promoter. The trafficking signal (TS) and endoplasmic reticulum export signal (ER) sequences were appropriately added to enhance membrane trafficking. All maps and sequence details are on the website: www(dot)optogenetics(dot)org.
Hippocampal neuron culture and calcium phosphate transfection (as per Mattis et al. (Nat Methods 2011; 9: 159-72)). Primary cultured hippocampal neurons were prepared from PO Sprague-Dawley rat pups (Charles River). CA1 and CA3 were isolated, digested with 0.4 mg ml^−1 papain (Worthington), and plated onto glass coverslips precoated with 1:30 Matrigel (Becton Dickinson Labware). […]
Electrophysiological recordings in cultured hippocampal neurons: Whole cell patch clamp recordings were performed on cultured hippocampal neurons 4-8 days post-transfection on an upright Leica DM-LFSA microscope (Mattis et al, 2011). […] Data acquisition, current and light manipulations were controlled using pClamp (Axon Instruments) via a Digidata 1440A interface and analyzed using ClampFit software (Axon Instruments). […]

Xenopus laevis oocytes = assay: Two-electrode voltage clamp of CsR proton pump co-expressed with rat ASICs in oocytes; assay type: cell-based; conditions: co-expressed with CsRT46N; 560 nm, 0.1 mM MOPS, pH 7.5
Experimental: Two-component optogenetics experiments. Construct design and expression in Xenopus laevis oocytes: The coding sequences for rat ASICs (in pRSSP6009) were provided by Stefan Grander (Aachen). The pRSSP6009 plasmid coding for ASICs and the pGEM plasmid coding for Coccomyxa subellipsoidea C-169 Rhodopsin CsRT46N were linearized by MulI site in pRSSP 6009 and by NheI in pGEM. After transcription into RNA using T7 (pGEM) or SP6 (pRSSP6009) mMessage mMachine Kit (Ambion Inc, Texas, USA) 32 ng of capped RNA encoding CsR pump and one type of ASIC were co-injected into Xenopus leavis oocytes with a molar ratio of 1:1 pump:channel for ASIC1 and ASIC2a and a molar ratio of 1:2 for ASIC3. Oocytes were incubated for 3 days at 18° C. in ORI solution with 1 μM all-trans retinal (Tsunoda & Hegemann, 2009).
Two-electrode voltage clamp measurements: TEVC measurements on X. laevis oocytes were performed using a GeneClamp 500 amplifier (Axon Instruments, Union City). Data acquisition, buffer exchange and light triggering were controlled with pClamp software via a Digidata 1322A interface (Molecular Devices, Sunnyvale). […] For pH titration, buffer solutions were adjusted with 5 mM MOPS/MES/Citrate over the range of pH 8.0 to 4.0, and were subsequently compared with photocurrents measured at 0.1 mM MOPS at pH 7.5

## N=C(N)NC(=O)c1nc(Cl)c(N)nc1N [amiloride]
[1]; 500 μM amiloride applied for 20 minutes, hippocampal ChR2 bystander neurons, 15 s light pulse
  Magnitude of light-evoked bystander current, relative to baseline value: ~50%
[1]; 500 μM amiloride, absence of any illumination
  Membrane resistance during amiloride application: increase in membrane resistance

## Champ4.0: eArch3.0 and ASIC2a separated during protein translation by the ribosomal skip sequence p2A; SEQ ID NO:34
[2]; head-to-head comparison, increasing molecular separation, 0.1 mM buffer
  Presence and reliability of the inward ASIC-mediated current component: occasionally saw large ASIC currents
[2]; one-way ANOVA across 5 groups
  Cell health measures (leak current, membrane resistance, pipette resistance, resting membrane potential) across groups: no significant differences

B1: ASIC3: rat acid-sensing ion channel co-expressed with CsR in oocytes (protein, UniProt O35240 1-533, looked up)
Acid-sensing ion channel 3: MKPRSGLEEAQRRQASDIRVFASSCTMHGLGHIFGPGGLTLRRGLWATAVLLSLAAFLYQVAERVRYYGEFHHKTTLDERESHQLTFPAVTLCNINPLRRSRLTPNDLHWAGTALLGLDPAEHAAYLRALGQPPAPPGFMPSPTFDMAQLYARAGHSLEDMLLDCRYRGQPCGPENFTVIFTRMGQCYTFNSGAHGAELLTTPKGGAGNGLEIMLDVQQEEYLPIWKDMEETPFEVGIRVQIHSQDEPPAIDQLGFGAAPGHQTFVSCQQQQLSFLPPPWGDCNTASLDPDDFDPEPSDPLGSPRPRPSPPYSLIGCRLACESRYVARKCGCRMMHMPGNSPVCSPQQYKDCASPALDAMLRKDTCVCPNPCATTRYAKELSMVRIPSRASARYLARKYNRSESYITENVLVLDIFFEALNYEAVEQKAAYEVSELLGDIGGQMGLFIGASLLTILEILDYLCEVFQDRVLGYFWNRRSAQKRSGNTLLQEELNGHRTHVPHLSLGPRPPTTPCAVTKTLSASHRTCYLVTRL
Xenopus laevis oocytes
  Inactivation in sustained light: strong inactivation
